We go through 14 molecules from US12378248B2 (The United States of America, as represented by the …, priority 2018, dated 2025).

Where two headings read alike, the source gives them in different places.

The subject of test [1] is wild-type C57BL/6J mice. Put plainly: Locomotor activity by telemetry after ip dosing. It is filed as in vivo, mouse. Particulars: average from dosing to 60 min, mean±SD. How it is done: (§1) Compounds were dosed ip. Tb and activity were measured by telemetry and the averages from dosing to 60 min were calculated. […] Data are for the highest dose used and are mean±SD from 3 to 22 mice/group (usually 5-7). P values are unpaired t-Test vs vehicle-treated controls assayed simultaneously. Vehicle data are mean±SD from all (n=83) vehicle treated mice.

The target of the next test is T1, mA3AR (Mus musculus, UniProt Q61618).
T1 sequence (Q61618 1-319): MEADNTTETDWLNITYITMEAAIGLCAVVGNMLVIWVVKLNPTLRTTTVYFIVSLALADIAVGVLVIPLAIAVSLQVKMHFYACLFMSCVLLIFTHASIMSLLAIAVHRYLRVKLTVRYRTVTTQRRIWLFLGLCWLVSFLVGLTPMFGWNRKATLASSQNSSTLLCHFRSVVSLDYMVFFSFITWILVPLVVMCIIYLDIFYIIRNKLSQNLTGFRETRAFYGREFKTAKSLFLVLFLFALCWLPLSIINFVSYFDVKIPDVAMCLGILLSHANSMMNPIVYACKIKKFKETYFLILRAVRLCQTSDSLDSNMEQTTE
In words: Adenosine receptor binding, mA3AR. The following applies: (m); Ki; read-out: A3AR % inhibition or Ki (converted).

In test [2] the test system is wild-type C57BL/6J mice. Put plainly: Hypothermia (Tb by telemetry) after ip dosing. It is filed as in vivo, mouse. Particulars: average from dosing to 60 min, mean±SD. The protocol:
as §1

The target of another test is T2, mA1AR (Mus musculus, UniProt Q60612).
T2 sequence (Q60612 1-326): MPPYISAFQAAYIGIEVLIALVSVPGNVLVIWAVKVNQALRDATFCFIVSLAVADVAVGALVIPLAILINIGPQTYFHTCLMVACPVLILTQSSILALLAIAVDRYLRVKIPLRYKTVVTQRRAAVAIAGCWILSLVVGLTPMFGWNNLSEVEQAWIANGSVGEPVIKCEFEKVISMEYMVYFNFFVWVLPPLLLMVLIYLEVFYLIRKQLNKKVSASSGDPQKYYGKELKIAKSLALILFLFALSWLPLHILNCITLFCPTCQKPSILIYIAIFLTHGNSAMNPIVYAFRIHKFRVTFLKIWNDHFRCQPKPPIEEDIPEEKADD
Put plainly: Adenosine receptor binding, mA1AR.

The target in another test is T3, hA2AAR (Homo sapiens, UniProt P29274).
T3 construct: expressed in transfected cells; host or cells: HEK293
In words: Radioligand binding in membranes of HEK293 cells expressing hA2AAR. The following applies: read-out: A2AAR % inhibition; for Ki: (h), values without % sign (Ki).

The target of a further test is T4, hA1AR (Homo sapiens, UniProt P30542).
T4 construct: expressed in transfected cells; host or cells: CHO
T4 sequence (P30542 1-326): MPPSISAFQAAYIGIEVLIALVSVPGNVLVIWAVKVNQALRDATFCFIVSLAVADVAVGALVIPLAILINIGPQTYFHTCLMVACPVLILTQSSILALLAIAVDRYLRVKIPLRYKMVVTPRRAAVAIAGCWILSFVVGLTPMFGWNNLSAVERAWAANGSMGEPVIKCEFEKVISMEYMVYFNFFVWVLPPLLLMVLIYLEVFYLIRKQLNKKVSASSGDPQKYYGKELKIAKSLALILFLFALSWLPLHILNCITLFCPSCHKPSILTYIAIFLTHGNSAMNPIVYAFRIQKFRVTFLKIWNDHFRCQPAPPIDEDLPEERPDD
Put plainly: Radioligand binding in membranes of CHO cells expressing hA1AR, [3H]N6-R-phenylisopropyladenosine. Particulars: read-out: A1AR % inhibition or Ki; for Ki: (h).

The next test concerns the target T5, hA3AR (Homo sapiens, UniProt P0DMS8).
T5 construct: expressed in transfected cells; host or cells: CHO
T5 sequence (P0DMS8 1-318): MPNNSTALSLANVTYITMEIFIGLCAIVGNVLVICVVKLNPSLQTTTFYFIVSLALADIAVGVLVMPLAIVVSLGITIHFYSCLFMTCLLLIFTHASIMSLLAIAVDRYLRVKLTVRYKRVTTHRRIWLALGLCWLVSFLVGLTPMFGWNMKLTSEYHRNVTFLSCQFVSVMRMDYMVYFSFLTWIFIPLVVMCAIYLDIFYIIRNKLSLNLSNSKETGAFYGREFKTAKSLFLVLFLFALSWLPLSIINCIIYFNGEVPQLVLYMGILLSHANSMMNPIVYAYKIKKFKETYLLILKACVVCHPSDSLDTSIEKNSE
In words: Radioligand binding in membranes of CHO cells expressing hA3AR. The following applies: read-out: A3AR % inhibition or Ki; for Ki: (h).

In another test the target is serotonin receptor 5HT2B (Homo sapiens, UniProt P41595). Put plainly: Off-target interaction determined by the PDSP. Particulars: read-out: Off-target, receptor (h, unless noted) (Ki, μM): 5HT2B. It is filed as binding.
The next test has as its target sigma receptor σ1 (Homo sapiens, UniProt Q99720). In words: Off-target interaction determined by the PDSP. It is filed as binding. The following applies: read-out: Off-target, receptor (h, unless noted) (Ki, μM): σ1.
The target in test [3] is TSPO (translocator protein) (UniProt P30536). In words: Off-target interaction determined by the PDSP. The following applies: for Ki: read-out: Off-target, receptor (h, unless noted) (Ki, μM): TSPO. It is filed as binding, human.
Another test deals with sigma receptor σ2 (UniProt Q5BJF2). In words: Off-target interaction determined by the PDSP. Particulars: read-out: Off-target, receptor (h, unless noted) (Ki, μM): σ2. It is filed as binding, human.
The next test has as its target T6, serotonin receptor 5HT2C (Homo sapiens, UniProt P28335).
T6 sequence (P28335 33-458): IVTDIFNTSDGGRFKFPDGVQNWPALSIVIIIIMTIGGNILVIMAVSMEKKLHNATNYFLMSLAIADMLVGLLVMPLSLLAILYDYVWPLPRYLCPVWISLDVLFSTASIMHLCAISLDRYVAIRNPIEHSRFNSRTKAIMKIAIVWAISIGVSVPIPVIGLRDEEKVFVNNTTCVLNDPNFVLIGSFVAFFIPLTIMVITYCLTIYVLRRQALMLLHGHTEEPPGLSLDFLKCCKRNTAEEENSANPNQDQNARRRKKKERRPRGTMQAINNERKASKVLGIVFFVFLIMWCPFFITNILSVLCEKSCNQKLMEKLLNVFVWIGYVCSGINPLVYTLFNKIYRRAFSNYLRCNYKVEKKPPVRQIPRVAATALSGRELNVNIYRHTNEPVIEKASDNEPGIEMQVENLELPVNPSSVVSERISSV
In words: Off-target interaction determined by the PDSP. It is filed as binding. The following applies: read-out: Off-target, receptor (h, unless noted) (Ki, μM): 5HT2C.

The mark [4] stands for this setting: (m), Ki, read-out: A1AR % inhibition or Ki (converted).

By inhibition is commonly meant the change of the read-out against control, counted positive when it falls.

Sequence of sigma receptor σ1 (Q99720 whole entry): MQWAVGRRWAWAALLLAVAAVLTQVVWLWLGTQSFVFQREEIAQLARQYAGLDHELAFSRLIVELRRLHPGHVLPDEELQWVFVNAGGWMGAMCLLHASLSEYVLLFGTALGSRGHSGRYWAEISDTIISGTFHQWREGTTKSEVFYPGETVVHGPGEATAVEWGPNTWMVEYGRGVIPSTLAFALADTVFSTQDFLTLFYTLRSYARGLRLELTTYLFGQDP
T3 sequence (P29274 whole entry): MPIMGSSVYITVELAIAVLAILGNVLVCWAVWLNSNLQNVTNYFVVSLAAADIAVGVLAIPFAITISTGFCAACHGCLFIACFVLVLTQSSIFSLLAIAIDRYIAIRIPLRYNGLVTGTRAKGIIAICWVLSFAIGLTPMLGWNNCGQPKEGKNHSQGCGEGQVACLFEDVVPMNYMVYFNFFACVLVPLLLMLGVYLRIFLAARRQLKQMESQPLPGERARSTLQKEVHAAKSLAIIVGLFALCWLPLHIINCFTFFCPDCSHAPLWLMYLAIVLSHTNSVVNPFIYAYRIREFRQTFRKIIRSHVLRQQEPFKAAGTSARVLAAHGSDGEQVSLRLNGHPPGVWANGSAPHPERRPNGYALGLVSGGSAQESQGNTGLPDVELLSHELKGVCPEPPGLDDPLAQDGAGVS
Sequence of serotonin receptor 5HT2B (P41595 whole entry): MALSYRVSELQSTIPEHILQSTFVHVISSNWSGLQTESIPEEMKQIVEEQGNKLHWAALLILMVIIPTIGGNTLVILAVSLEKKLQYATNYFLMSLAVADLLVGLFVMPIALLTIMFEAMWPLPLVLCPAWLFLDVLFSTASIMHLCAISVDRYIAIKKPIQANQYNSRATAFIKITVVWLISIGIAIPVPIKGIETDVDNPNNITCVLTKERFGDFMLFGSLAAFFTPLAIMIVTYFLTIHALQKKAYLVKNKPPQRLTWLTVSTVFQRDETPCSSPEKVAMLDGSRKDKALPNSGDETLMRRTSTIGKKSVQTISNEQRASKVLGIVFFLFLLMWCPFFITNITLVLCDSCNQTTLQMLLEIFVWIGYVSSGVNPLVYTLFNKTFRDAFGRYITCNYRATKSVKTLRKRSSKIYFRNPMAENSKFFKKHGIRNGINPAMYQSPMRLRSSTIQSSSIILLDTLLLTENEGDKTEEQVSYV

As to `O[C@@H]1[C@H](O)[C@@H](CCl)O[C@H]1n1cnc2c(NC3CC4CCC3C4)ncnc21` (stereo partly drawn) [Compound 4, reference compound], the “Activity (counts)” value in the test on wild-type C57BL/6J mice [1] (3 mg/kg ip) is listed as 2.8 ± 1.6 counts. The Ki on mA3AR was 2410 nM; on mA1AR (setting [4]), 0.2 nM. For the same molecule, the “Tb (° C.)” value in the test with wild-type C57BL/6J mice [2] (3 mg/kg ip) was 32.2 ± 1.3 °C.
Turning to `Nc1ncnc2c1ncn2[C@@H]1O[C@H](C(=O)NCCO)[C@@H](O)[C@H]1O` [Compound 18, reference compound], the results for the Ki at hA2AAR, on hA1AR and on hA3AR were 505 ± 30 nM, 12.8 nM and 9450 nM, respectively.
For the molecule `CNC(=O)[C@@]12C[C@@H]1[C@@H](n1cnc3c(NC4CCCC4)nc(Cl)nc31)[C@H](O)[C@@H]2O` [Compound 6e, reference compound], the Ki is 0.012 µM on serotonin receptor 5HT2B; 3.46 ± 0.13 nM on mA3AR; 3250 ± 300 nM at hA2AAR; 1.55 µM on sigma receptor σ1; 18.3 ± 6.3 nM at hA1AR; 3.7 ± 0.9 nM at hA3AR. The Ki on mA1AR (setting [4]) is 0.68 nM.
On to `NC(=O)c1ncn([C@@H]2O[C@H](CO)[C@@H](O)[C@H]2O)n1` [Compound 38, ribavirin, reference compound], for which the values for the inhibition at 10 µM on hA2AAR and on hA3AR were 23 ± 6% and 16 ± 5%, respectively.
In the case of `O[C@@H]1[C@H](O)[C@@H]2C[C@@H]2[C@H]1n1cnc2c(NC(C3CC3)C3CC3)nc(Cl)nc21` [Compound 7, reference compound], the “Activity (counts)” value in the test on wild-type C57BL/6J mice [1] (3 mg/kg ip) stood at 5.5 ± 4.1 counts. In addition, the “Tb (° C.)” value in the test with wild-type C57BL/6J mice [2] (3 mg/kg ip) stood at 33.4 ± 1.7 °C.
For `O[C@@H]1[C@H](O)[C@@H]2C[C@@H]2[C@H]1n1cnc2c(NC(C3CCC3)C3CCC3)nc(Cl)nc21` [Compound 19], the inhibition at 10 µM on hA2AAR turned out to be 46 ± 6%. The Ki in test [3] amounted to 2.38 µM.
In the case of `CCOC(=O)[C@@]12C[C@@H]1[C@@H](n1cnc3c(NC(C4CC4)C4CC4)nc(Cl)nc31)[C@@H]1OC(C)(C)O[C@@H]12` [Compound 33], the figures for the inhibition at 10 µM on hA2AAR, on hA1AR and at hA3AR were 15 ± 2%, 49 ± 9% and 41 ± 6%, respectively.
Turning to `CCSC[C@H]1O[C@@H](n2cnc3c(NC(C4CCC4)C4CCC4)ncnc32)[C@H](O)[C@@H]1O` [Compound 11, (2R,3R,4S,5S)-2-(6-((Dicyclobutylmethyl)amino)-9H-purin-9-yl)-5-((ethylthio)methyl)tetrahydrofuran-3,4-diol], the Ki at mA3AR is 718 nM; at sigma receptor σ2 it was 0.642 µM; at sigma receptor σ1, 0.626 µM; at hA1AR it was 63.4 ± 12.1 nM; on hA3AR it was 6220 ± 1480 nM; at mA1AR (setting [4]), 3.58 nM. The inhibition at 10 µM at hA2AAR was found to be 30 ± 5%. Also, the “Off-target: TSPO (% inhib.)” value in [3] (footnote j not given) came to 90%.
Consider `CNC(=O)[C@@]12C[C@@H]1[C@@H](n1cnc3c(NC(C4CC4)C4CC4)nc(Cl)nc31)[C@H](O)[C@@H]2O` [Compound 34], for which the Ki at serotonin receptor 5HT2B amounted to 0.023 µM; on hA2AAR, 4320 ± 1870 nM; on serotonin receptor 5HT2C it was 0.749 µM; on hA1AR it was 110 ± 14 nM; on hA3AR it was 34 ± 11 nM.
`Nc1nc(Cl)nc2c1ncn2[C@H]1[C@H](O)[C@H](O)[C@]2(CCl)C[C@H]12` [Compound 22]: the Ki at hA2AAR came out at 1750 ± 290 nM; on sigma receptor σ2 it was 2.55 µM; on sigma receptor σ1, 1.97 µM; at hA1AR it was 7.61 ± 0.73 nM; on hA3AR, 253 ± 148 nM.
`CCOC(=O)[C@@]12C[C@@H]1[C@@H](n1cnc3c(NC(C4CC4)C4CC4)nc(Cl)nc31)[C@H](O)[C@@H]2O` [Compound 32]: the Ki came out at 0.015 µM at serotonin receptor 5HT2B, 0.054 µM on serotonin receptor 5HT2C, 360 ± 74 nM on hA1AR and 236 ± 41 nM on hA3AR.
With `OC[C@H]1O[C@@H](n2cnc3c(NC(C4CCC4)C4CCC4)nc(Cl)nc32)[C@H](O)[C@@H]1O` [Compound 12, (2R,3R,4R,5R)-2-(2-Chloro-6-((dicyclobutylmethyl)amino)-9H-purin-9-yl)-5-(hydroxymethyl)tetrahydrofuran-3,4-diol], the Ki at mA3AR is 653 nM; at hA2AAR, 2550 ± 540 nM; at serotonin receptor 5HT2C it was 1.45 µM; on hA1AR, 17.8 ± 8.7 nM; at hA3AR, 13200 nM; at mA1AR (Table 7, repeats the binding tables, read-out: Binding Ki for mA1AR), 0.65 nM.
For the molecule `Nc1ncnc2c1ncn2[C@@H]1O[C@H](C(=O)O)[C@@H](O)[C@H]1O` [Compound 14], the inhibition at 10 µM on hA2AAR came to 11 ± 4%; on hA1AR it was 24 ± 4%; on hA3AR, 32%. For the same molecule, the Ki on sigma receptor σ2 was found to be 0.796 µM; at sigma receptor σ1 it was 1.48 µM.
`O[C@@H]1[C@H](O)[C@@H](CCl)O[C@H]1n1cnc2c(NC(C3CCC3)C3CCC3)ncnc21` [Compound 10, (2S,3S,4R,5R)-2-(Chloromethyl)-5-(6-((dicyclobutylmethyl)amino)-9H-purin-9-yl)tetrahydrofuran-3,4-diol]: the “Activity (counts)” value in the test on wild-type C57BL/6J mice [1] (10 mg/kg ip) was found to be 20.5 ± 4.6 counts. Besides, the Ki is 2110 nM at mA3AR; 5200 nM on hA2AAR; 0.662 µM at sigma receptor σ2; 0.69 µM at sigma receptor σ1; 4.9 ± 0.87 nM on hA1AR; 3.98 µM in test [3]. For the same molecule, the Ki at hA3AR is 16600 nM; on mA1AR (setting [4]), 0.71 nM. The “Tb (° C.)” value in the test on wild-type C57BL/6J mice [2] (10 mg/kg ip) came out at 35.8 ± 0.1 °C.
